System: NK T hybridoma DN32.D3
Assay: Murine NK T cell hybridoma stimulation assay (IL-2 release), RMA-S.mCD1d as APC
Format: cell-based, mouse
Details: presented by RMA-S/CD1d cells
Experimental: FIG. 5. […] NK T hybridoma DN32.D3 was cultured with CD1d-transfected RMA-S cells in microtiter plate wells. Each ceramide-like glycolipid was titrated over a concentration range from 0.5-500 nM, and supernatants were harvested after 24 hours for measurement of IL-2 release. Units of activity were calculated as the reciprocal of the concentration of ceramide-like glycolipid required to give a half maximal release of IL-2, and all values were normalized to the activity of KRN7000 (defined as 1 Unit). The dotted line indicates the level of activity for KRN7000. The structures of two ceramide-like glycolipids with markedly elevated activity relative to KRN7000 are shown.
The ability of the compounds to activate NK T cell hybridomas in the presence of various types of cells expressing CD1d reported in FIG. 5A was determined using a murine NK T cell hybridoma stimulation assay. […] Relative potencies of the ceramide-like glycolipids were calculated from the reciprocal effective concentrations at half-maximal response (1/EC50), and expressed as units by normalization to the observed potency for KRN7000.
IL-2 production by NK T hybridoma DN32D3 in response to eight selected ceramide-like glycolipids, was determined using three different cell types as antigen presenting cells. […]

## CCCCC/C=C\C/C=C\CCCCCCCCCC(=O)N[C@@H](COC1OC(CO)C(O)C(O)C1O)[C@H](O)[C@H](O)CCCCCCCCCCCCCC (stereo partly shown) [DB03-4]
  potency relative to KRN7000 (IL-2 production): extremely enhanced potency

— US8022043B2, “Ceramide derivatives as modulators of immunity and autoimmunity” (Albert Einstein College of Medicine of Yeshiva University, priority 2004, dated 2011)
